Source: patent US10385113B2, “Engineered FGF compositions and methods of use thereof” (THE BOARD OF TRUSTEES OF THE UNIVERSITY OF ARKANSAS, priority 2016, dated 2019)

Assays:
[1] = target: T1, human FGF-1 (hFGF-1) mutant R136E, SEQ ID NO: 4 (Homo sapiens, UniProt P05230, R137E); assay: Isothermal titration calorimetry (ITC) of FGF-1 mutant R136E with SOS; assay type: binding; settings: 10 mM phosphate, 100 mM NaCl, 50 mM ammonium sulfate, pH 6.5, 25° C., FIG. 10C, read-out: dissociation constant (Kd)
T1 construct: made in house
T1 sequence (P05230 16-155 R137E): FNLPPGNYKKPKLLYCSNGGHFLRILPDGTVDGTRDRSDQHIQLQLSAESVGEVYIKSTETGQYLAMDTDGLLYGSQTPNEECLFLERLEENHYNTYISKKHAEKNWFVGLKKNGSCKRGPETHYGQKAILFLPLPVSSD
Method: (§1) For WT hFGF-1, and mutant proteins were in the cell and at a concentration of 0.05 mM in a buffer of 10 mM phosphate, 100 mM NaCl, 50 mM ammonium sulfate, pH 6.5. […] The data was analyzed using Origin scientific plotting software.
(§2) ITC is a method used to directly evaluate the affinity and enthalpy of binding reactions.

[2] = target: T2, human FGF-1 (hFGF-1), wild type (wtFGF-1), SEQ ID NO: 2 (Homo sapiens, UniProt P05230); assay: Isothermal titration calorimetry (ITC) of wild-type FGF-1 with SOS; assay type: binding; settings: FIG. 10A
T2 construct: made in house
T2 sequence (P05230 16-155): as the sequence (P05230 16-155 R137E) above, with E122R counted along it
Method: as §1, §2

## O=S(=O)(O)OC[C@H]1O[C@@](COS(=O)(=O)O)(O[C@H]2O[C@H](COS(=O)(=O)O)[C@@H](OS(=O)(=O)O)[C@H](OS(=O)(=O)O)[C@H]2OS(=O)(=O)O)[C@@H](OS(=O)(=O)O)[C@@H]1OS(=O)(=O)O [SOS, sucrose octasulfate]
[1]
  Kd: 72.4 µM
[2]; 10 mM phosphate, 100 mM NaCl, 50 mM ammonium sulfate, pH 6.5, 25° C., read-out: dissociation constant (Kd)
  Kd: 2.6 µM
[2]; compared with R136E, result in words
  affinity to SOS (binding isotherm): strong affinity
